Source: ChEMBL document CHEMBL4325931, “Modification of the Thioglycosyl-Naphthalimides as Potent and Selective Human O-GlcNAcase Inhibitors” (ACS Med Chem Lett, 2018)
pIC50, pKi: −log10 of the molar value.

Legend:
Protein O-GlcNAcase [1] = molecular target: T1, Protein O-GlcNAcase (Homo sapiens, UniProt O60502); experiment: Inhibition of recombinant human OGA expressed in Escherichia coli BL21 (DE3) using varying levels of 4-Mu-GlcNAc as substrate preincubated for 10 mins followed by substrate addition and measured after 30 mins by dixon plot analysis
T1 sequence (O60502 whole entry): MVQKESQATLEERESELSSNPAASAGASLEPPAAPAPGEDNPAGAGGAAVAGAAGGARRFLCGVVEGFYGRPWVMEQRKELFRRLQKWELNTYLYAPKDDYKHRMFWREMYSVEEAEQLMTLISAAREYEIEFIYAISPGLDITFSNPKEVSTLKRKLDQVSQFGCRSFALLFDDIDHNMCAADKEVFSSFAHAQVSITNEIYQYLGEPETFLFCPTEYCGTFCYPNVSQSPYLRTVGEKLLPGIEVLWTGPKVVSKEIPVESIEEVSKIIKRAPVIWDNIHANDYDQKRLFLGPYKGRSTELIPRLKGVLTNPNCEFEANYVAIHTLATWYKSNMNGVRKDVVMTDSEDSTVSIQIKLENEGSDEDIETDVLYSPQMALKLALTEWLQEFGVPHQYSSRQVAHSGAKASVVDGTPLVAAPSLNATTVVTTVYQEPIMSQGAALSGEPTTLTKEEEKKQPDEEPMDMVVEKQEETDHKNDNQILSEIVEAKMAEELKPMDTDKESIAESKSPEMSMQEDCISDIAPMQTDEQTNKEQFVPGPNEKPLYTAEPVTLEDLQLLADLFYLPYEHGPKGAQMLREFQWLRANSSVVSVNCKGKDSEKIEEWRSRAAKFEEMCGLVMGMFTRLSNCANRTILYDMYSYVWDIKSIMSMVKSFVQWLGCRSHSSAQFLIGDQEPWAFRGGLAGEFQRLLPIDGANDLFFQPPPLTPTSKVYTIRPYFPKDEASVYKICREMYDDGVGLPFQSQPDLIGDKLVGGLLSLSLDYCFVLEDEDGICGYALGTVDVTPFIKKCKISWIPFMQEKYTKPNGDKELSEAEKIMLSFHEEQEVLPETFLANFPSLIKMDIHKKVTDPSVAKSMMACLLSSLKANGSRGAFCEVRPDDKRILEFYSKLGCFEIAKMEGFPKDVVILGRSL

[2] = molecular target: T2, Beta-hexosaminidase subunit beta (Homo sapiens) (UniProt P07686); experiment: Inhibition of recombinant human His6-tagged HexB expressed in Pichia pastoris at 20 uM using 4-Mu-GlcNAc as substrate preincubated for 10 mins followed by substrate addition and measured after 30 mins by fluorescence assay relative to control
T2 sequence (whole entry): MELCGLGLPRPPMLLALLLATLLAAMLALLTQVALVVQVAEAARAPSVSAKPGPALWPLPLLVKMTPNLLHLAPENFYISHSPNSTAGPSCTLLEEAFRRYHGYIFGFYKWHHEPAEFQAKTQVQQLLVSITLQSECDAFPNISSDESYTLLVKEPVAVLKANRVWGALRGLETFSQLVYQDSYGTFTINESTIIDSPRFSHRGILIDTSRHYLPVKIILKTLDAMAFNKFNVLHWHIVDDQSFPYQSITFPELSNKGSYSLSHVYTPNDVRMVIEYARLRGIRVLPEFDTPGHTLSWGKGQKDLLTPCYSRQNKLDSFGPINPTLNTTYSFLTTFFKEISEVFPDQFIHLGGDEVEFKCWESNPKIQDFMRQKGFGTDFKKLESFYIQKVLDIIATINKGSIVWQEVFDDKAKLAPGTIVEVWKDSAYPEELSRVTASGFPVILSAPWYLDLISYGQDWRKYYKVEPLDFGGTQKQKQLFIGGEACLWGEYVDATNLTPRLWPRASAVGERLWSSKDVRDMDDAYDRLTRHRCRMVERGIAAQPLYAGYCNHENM

[3] = molecular target: T3, Protein O-GlcNAcase (Homo sapiens) (UniProt O60502); experiment: Inhibition of recombinant human OGA expressed in Escherichia coli BL21 (DE3) at 20 uM using 4-Mu-GlcNAc as substrate preincubated for 10 mins followed by substrate addition and measured after 30 mins by fluorescence assay relative to control
T3 sequence (whole entry): T1 sequence (O60502 whole entry)

Homo sapiens = organism: Homo sapiens; experiment: Selectivity ratio of Ki for recombinant human His6-tagged HexB expressed in Pichia pastoris to Ki for recombinant human OGA expressed in Escherichia coli BL21 (DE3)
[4] = molecular target: T2, Beta-hexosaminidase subunit beta (Homo sapiens); experiment: Inhibition of recombinant human His6-tagged HexB expressed in Pichia pastoris at 100 uM using varying levels of 4-Mu-GlcNAc as substrate preincubated for 10 mins followed by substrate addition and measured after 30 mins by dixon plot analysis relative to control
[5] = molecular target: T4, Beta-hexosaminidase subunit beta (Homo sapiens, UniProt P07686); experiment: Inhibition of recombinant human His6-tagged HexB expressed in Pichia pastoris using varying levels of 4-Mu-GlcNAc as substrate preincubated for 10 mins followed by substrate addition and measured after 30 mins by dixon plot analysis
T4 sequence (P07686 whole entry): T2 sequence (whole entry)

[6] = molecular target: T2, Beta-hexosaminidase subunit beta (Homo sapiens); experiment: Inhibition of recombinant human His6-tagged HexB expressed in Pichia pastoris at 20 uM using 4-Mu-GlcNAc as substrate measured after 30 mins by fluorescence assay relative to control
[7] = molecular target: T3, Protein O-GlcNAcase (Homo sapiens); experiment: Inhibition of recombinant human OGA expressed in Escherichia coli BL21 (DE3) at 20 uM using 4-Mu-GlcNAc as substrate measured after 30 mins by fluorescence assay relative to control
[8] = molecular target: T4, Beta-hexosaminidase subunit beta; experiment: Inhibition of recombinant human His6-tagged HexB expressed in Pichia pastoris using 4-Mu-GlcNAc as substrate preincubated for 10 mins followed by substrate addition and measured after 30 mins by fluorescence assay
Protein O-GlcNAcase [9] = molecular target: T1, Protein O-GlcNAcase; experiment: Inhibition of recombinant human OGA expressed in Escherichia coli BL21 (DE3) using 4-Mu-GlcNAc as substrate preincubated for 10 mins followed by substrate addition and measured after 30 mins by fluorescence assay
[10] = Inhibition of Ostrinia furnacalis beta-N-acetylhexosaminidase using pNP-beta-GlcNAc as substrate by dixon plot analysis
[11] = molecular target: Beta-hexosaminidase (Homo sapiens); experiment: Inhibition of human beta-N-acetylhexosaminidase using pNP-beta-GlcNAc as substrate by dixon plot analysis

SMILES | pKi (Protein O-GlcNAcase [1]) | inhibition [2] | inhibition [3] | Ratio Ki (Homo sapiens) | pKi [5] | other results
CC(=O)N[C@@H]1[C@@H](O)[C@H](O)[C@@H](CO)O[C@H]1SCCCNCCN1C(=O)c2cccc3c(N4CCCCC4)ccc(c23)C1=O | 5.49 | 0% | 67.5% | > 31.2 |  | inhibition [4]: < 50%
CC(=O)N[C@@H]1[C@@H](O)[C@H](O)[C@@H](CO)O[C@H]1SCCNCCN1C(=O)c2cccc3c(N4CCCCC4)ccc(c23)C1=O |  | 0% | 36.7% |  |  | 
CC(=O)N[C@@H]1[C@@H](O)[C@H](O)[C@@H](CO)O[C@H]1SCCNCCCN1C(=O)c2cccc3c(N4CCCCC4)ccc(c23)C1=O | 6.22 | 0% | 87.6% | > 167 |  | inhibition [4]: < 50%
CC(=O)N[C@@H]1[C@@H](O)[C@H](O)[C@@H](CO)O[C@H]1SCCCNCCN1C(=O)c2cccc3c(Br)ccc(c23)C1=O | 5.46 | 60.6% | 75.7% | 1.5 | 5.29 | 
CC(=O)N[C@@H]1[C@@H](O)[C@H](O)[C@@H](CO)O[C@H]1SCCNCCCN1C(=O)c2cccc3cccc(c23)C1=O |  |  |  | 8 |  | inhibition [6]: 38.7%; inhibition [7]: 82.4%
COc1ccc2c3c(cccc13)C(=O)N(CCCNCCCS[C@@H]1O[C@H](CO)[C@@H](O)[C@H](O)[C@H]1NC(C)=O)C2=O | 4.80 | 45.2% | 68% | 1.6 | 4.61 | 
CC(=O)N[C@@H]1[C@@H](O)[C@H](O)[C@@H](CO)O[C@H]1SCCNCCN1C(=O)c2cccc3c(N(C)C)ccc(c23)C1=O |  | 0% | 32.6% |  |  | pIC50 [8]: < 4.00; pIC50 (Protein O-GlcNAcase [9]): 4.60
CC(=O)N[C@@H]1[C@@H](O)[C@H](O)[C@@H](CO)O[C@H]1SCCCNCCN1C(=O)c2cccc3c(Cl)ccc(c23)C1=O | 6.15 | 75.2% | 83.6% | 2.3 | 5.80 | 
CC(=O)N[C@@H]1[C@@H](O)[C@H](O)[C@@H](CO)O[C@H]1SCCNCCN1C(=O)c2cccc3c(Cl)ccc(c23)C1=O | 5.70 | 73.8% | 66.1% | 0.6 | 5.92 | 
COc1ccc2c3c(cccc13)C(=O)N(CCNCCS[C@@H]1O[C@H](CO)[C@@H](O)[C@H](O)[C@H]1NC(C)=O)C2=O | 5.17 | 22.5% | 56.4% | 8.4 | 4.25 | 
CC(=O)N[C@@H]1[C@@H](O)[C@H](O)[C@@H](CO)O[C@H]1SCCCNCCCN1C(=O)c2cccc3c(N4CCCCC4)ccc(c23)C1=O |  | 0% | 49.1% |  |  | 
CC(=O)N[C@@H]1[C@@H](O)[C@H](O)[C@@H](CO)O[C@H]1SCCCNCCN1C(=O)c2cccc3c(N(C)C)ccc(c23)C1=O |  | 0% | 26.6% |  |  | 
Cc1nnc(CNCCN2C(=O)c3cccc4c(N(C)C)ccc(c34)C2=O)s1 |  |  |  |  |  | pKi [10]: 6.52; pKi [11]: < 4.00
Cc1nnc(CNCCN2C(=O)c3cccc4cccc(c34)C2=O)s1 |  |  |  |  |  | pKi [10]: 5.37; pKi [11]: 5.66
COc1ccc2c3c(cccc13)C(=O)N(CCNCCCS[C@@H]1O[C@H](CO)[C@@H](O)[C@H](O)[C@H]1NC(C)=O)C2=O |  | 39% | 34.3% |  |  | 
CC(=O)N[C@@H]1[C@@H](O)[C@H](O)[C@@H](CO)O[C@H]1SCCCNCCCN1C(=O)c2cccc3c(N(C)C)ccc(c23)C1=O |  | 0% | 28.2% |  |  | 

More lines, main results first:

pKi (Protein O-GlcNAcase [1]) | inhibition [2] | inhibition [3] | Ratio Ki (Homo sapiens) | pKi [5] | SMILES | other results
 | 0% | 25.6% |  |  | CC(=O)N[C@@H]1[C@@H](O)[C@H](O)[C@@H](CO)O[C@H]1SCCCNCCN1C(=O)c2cccc3c([N+](=O)[O-])ccc(c23)C1=O | 
6.05 | 70.5% | 84.7% | 2 | 5.74 | CC(=O)N[C@@H]1[C@@H](O)[C@H](O)[C@@H](CO)O[C@H]1SCCNCCCN1C(=O)c2cccc3c(Br)ccc(c23)C1=O | 
 | 0% | 20% |  |  | CC(=O)N[C@@H]1[C@@H](O)[C@H](O)[C@@H](CO)O[C@H]1SCCCNCCCN1C(=O)c2cccc3c([N+](=O)[O-])ccc(c23)C1=O | 
 | 13.8% | 25.1% |  |  | CC(=O)N[C@@H]1[C@@H](O)[C@H](O)[C@@H](CO)O[C@H]1SCCNCCN1C(=O)c2cccc3c([N+](=O)[O-])ccc(c23)C1=O | 
5.68 | 74.3% | 68.9% | 0.9 | 5.74 | CC(=O)N[C@@H]1[C@@H](O)[C@H](O)[C@@H](CO)O[C@H]1SCCCNCCCN1C(=O)c2cccc3c(Cl)ccc(c23)C1=O | 
 | 0% | 40.9% |  |  | CC(=O)N[C@@H]1[C@@H](O)[C@H](O)[C@@H](CO)O[C@H]1SCCNCCCN1C(=O)c2cccc3c(N(C)C)ccc(c23)C1=O | 
5.08 | 8% | 55% | > 12 |  | CC(=O)N[C@@H]1[C@@H](O)[C@H](O)[C@@H](CO)O[C@H]1SCCNCCCN1C(=O)c2cccc3c([N+](=O)[O-])ccc(c23)C1=O | inhibition [4]: < 50%
6.10 | 70.8% | 83.3% | 2 | 5.80 | CC(=O)N[C@@H]1[C@@H](O)[C@H](O)[C@@H](CO)O[C@H]1SCCNCCCN1C(=O)c2cccc3c(Cl)ccc(c23)C1=O | 
5.66 | 65% | 59.2% | 2 | 5.36 | CC(=O)N[C@@H]1[C@@H](O)[C@H](O)[C@@H](CO)O[C@H]1SCCCNCCCN1C(=O)c2cccc3c(Br)ccc(c23)C1=O | 
5.92 | 73.3% | 73.2% | 2.2 | 5.59 | CC(=O)N[C@@H]1[C@@H](O)[C@H](O)[C@@H](CO)O[C@H]1SCCNCCN1C(=O)c2cccc3c(Br)ccc(c23)C1=O | 
5.80 | 47.9% | 73.1% | 13.8 | 4.66 | COc1ccc2c3c(cccc13)C(=O)N(CCCNCCS[C@@H]1O[C@H](CO)[C@@H](O)[C@H](O)[C@H]1NC(C)=O)C2=O | 
